Patent publication US20190071416A1, “COMPOUNDS FOR TREATMENT OF CANCER AND EPIGENETICS” (Agency For Science, Technology and Research, priority 2015, published 2019)

Molecular target: T1, SMYD3 (Homo sapiens, UniProt Q9H7B4)
T1 sequence (Q9H7B4 1-428): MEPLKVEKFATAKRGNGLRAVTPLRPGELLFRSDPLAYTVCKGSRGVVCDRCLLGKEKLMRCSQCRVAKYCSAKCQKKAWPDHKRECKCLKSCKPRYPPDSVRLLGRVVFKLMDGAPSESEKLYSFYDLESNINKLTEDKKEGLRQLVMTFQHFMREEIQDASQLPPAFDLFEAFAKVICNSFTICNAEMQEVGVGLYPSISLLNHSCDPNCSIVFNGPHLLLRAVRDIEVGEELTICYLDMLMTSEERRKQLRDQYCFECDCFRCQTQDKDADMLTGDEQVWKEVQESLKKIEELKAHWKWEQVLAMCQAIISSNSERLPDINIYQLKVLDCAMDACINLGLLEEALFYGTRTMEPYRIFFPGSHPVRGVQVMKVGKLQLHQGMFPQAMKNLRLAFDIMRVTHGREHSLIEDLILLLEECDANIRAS
Assay: SMYD3 biochemical assay (MTase-Glo, MAP3K2 peptide substrate)
Conditions: Table 3; MTase assay, MAP3K2 peptide substrate; read-out: IC50
How it was run: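 Luminescent readout of SAH production (coupled SAH→ATP conversion, MTase-Glo) after SMYD3 reacted 30 min at room temperature with 1.0 µM SAM and 10 µM MAP3K2 peptide, both final. Non-linear regression gave IC50 values.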

| IC50 | Structure (SMILES) |
| --- | --- |
| 210 nM | CCCOC(=O)N1CCN(C(=O)c2ccc3c(Cl)cc(-c4cccs4)nc3c2)C[C@H]1C [B085, Propyl (R)-4-(4-chloro-2-(thiophen-2-yl)quinoline-7-carbonyl)-2-methylpiperazine-1-carboxylate] |
| 19 nM | CCCOC(=O)N1CCN(C(=O)c2ccc3c(Cl)cc(-c4cnn(C5COC5)c4)nc3c2)C[C@@H]1C [B273, Propyl (S)-4-(4-chloro-2-(1-(oxetan-3-yl)-1H-pyrazol-4-yl)quinoline-7-carbonyl)-2-methylpiperazine-1-carboxylate] |
| 130 nM | CCCOC(=O)N1CCN(C(=O)c2ccc3c(Cl)cc(-c4ccc(C(C)(C)CN(C)C)cc4)nc3c2)CC1 [B287, Propyl 4-(4-chloro-2-(4-(1-(dimethylamino)-2-methylpropan-2-yl)phenyl)quinoline-7-carbonyl)piperazine-1-carboxylate] |
| 600 nM | CCCOC(=O)N1CCN(C(=O)c2ccc3c(Cl)cc(-c4ccc(-n5cccn5)cc4)nc3c2)CC1 [B134, Propyl 4-(2-(4-(1H-pyrazol-1-yl)phenyl)-4-chloroquinoline-7-carbonyl)piperazine-1-carboxylate] |
| 120 nM | CCCOC(=O)N1CCN(C(=O)c2ccc3c(Cl)c(C)c(-c4cccc(N)c4)nc3c2)C[C@H]1C [B056, Propyl (R)-4-(2-(3-aminophenyl)-4-chloro-3-methylquinoline-7-carbonyl)-2-methylpiperazine-1-carboxylate] |
| 3500 nM | CCCOC(=O)N1CCN(C(=O)c2ccc3c(Cl)cc(-c4ccc(N5CCCC5)c(F)c4)nc3c2)CC1 [B238, Propyl 4-(4-chloro-2-(3-fluoro-4-(pyrrolidin-1-yl)phenyl)quinoline-7-carbonyl)piperazine-1-carboxylate] |
| 1750 nM | CCCOC(=O)N1CCN(C(=O)c2ccc3c(Cl)cc(-c4ccn(C)n4)nc3c2)CC1 [B168, Propyl 4-(4-chloro-2-(1-methyl-1H-pyrazol-3-yl)quinoline-7-carbonyl)piperazine-1-carboxylate] |
| 770 nM | CCCOC(=O)N1CCN(C(=O)c2ccc3c(Cl)cc(-c4cccc(C)c4)nc3c2)CC1 [B011, Propyl 4-(4-chloro-2-(m-tolyl)quinoline-7-carbonyl)piperazine-1-carboxylate] |
| 500 nM | CCCOC(=O)N1CCN(C(=O)c2ccc3c(Cl)cc(-c4ccc(COCC)cc4)nc3c2)CC1 [B256, Propyl 4-(4-chloro-2-(4-(ethoxymethyl)phenyl)quinoline-7-carbonyl)piperazine-1-carboxylate] |
| 7500 nM | CCCOC(=O)N1CCN(C(=O)c2ccc3c(Cl)cc(-c4ccnn4C)nc3c2)[C@@H](C)C1 [B091, Propyl (S)-4-(4-chloro-2-(1-methyl-1H-pyrazol-5-yl)quinoline-7-carbonyl)-3-methylpiperazine-1-carboxylate] |
| 400 nM | CCCOC(=O)N1CCN(C(=O)c2ccc3c(Cl)cc(-c4ccc(-c5ccn[nH]5)cc4)nc3c2)CC1 [B135, Propyl 4-(2-(4-(1H-pyrazol-5-yl)phenyl)-4-chloroquinoline-7-carbonyl)piperazine-1-carboxylate] |
| 420 nM | CCCOC(=O)N1CCN(C(=O)c2ccc3c(Cl)cc(-c4ccc(N(C)C)cc4)nc3c2)C[C@H]1C [B060, Propyl (R)-4-(4-chloro-2-(4-(dimethylamino)phenyl)quinoline-7-carbonyl)-2-methylpiperazine-1-carboxylate] |
| 1400 nM | CCCOC(=O)N1CCN(C(=O)c2ccc3c(Cl)c(CC)c(-c4ccccc4)nc3c2)CC1 [B004, Propyl 4-(4-chloro-3-ethyl-2-phenylquinoline-7-carbonyl)piperazine-1-carboxylate] |
| 120 nM | CCCOC(=O)N1CCN(C(=O)c2ccc3c(Cl)cc(-c4ccc5c(c4)OCO5)nc3c2)CC1 [B163, Propyl 4-(2-(benzo[d][1,3]dioxol-5-yl)-4-chloroquinoline-7-carbonyl)piperazine-1-carboxylate] |
| 260 nM | CCCOC(=O)N1CCN(C(=O)c2ccc3c(Cl)cc(-c4ccc(OC)cc4)nc3c2)CC1 [B046, Propyl 4-(4-chloro-2-(4-methoxyphenyl)quinoline-7-carbonyl)piperazine-1-carboxylate] |
| 1100 nM | CCCOC(=O)N1CCN(C(=O)c2ccc3c(Cl)c(C)c(-c4cccc(C)c4)nc3c2)CC1 [B028, Propyl 4-(4-chloro-3-methyl-2-(m-tolyl)quinoline-7-carbonyl)piperazine-1-carboxylate] |
| 860 nM | CCCOC(=O)N1CCN(C(=O)c2ccc3c(Cl)cc(-c4cccc(CN5CCOCC5)c4)nc3c2)CC1 [B105, Propyl 4-(4-chloro-2-(3-(morpholinomethyl)phenyl)quinoline-7-carbonyl)piperazine-1-carboxylate] |
| 950 nM | CCCOC(=O)N1CCN(C(=O)c2ccc3c(Cl)cc(-c4ccncc4)nc3c2)CC1 [B013, Propyl 4-(4-chloro-2-(pyridin-4-yl)quinoline-7-carbonyl)piperazine-1-carboxylate] |
| 53 nM | CCCOC(=O)N1CCN(C(=O)c2ccc3c(Cl)cc(-c4ccc5[nH]ncc5c4)nc3c2)CC1 [B128, Propyl 4-(4-chloro-2-(1H-indazol-5-yl)quinoline-7-carbonyl)piperazine-1-carboxylate] |
| 800 nM | CCCOC(=O)N1CCN(C(=O)c2ccc3c(Cl)cc(-c4ccnc5[nH]ccc45)nc3c2)CC1 [B221, Propyl 4-(4-chloro-2-(1H-pyrrolo[2,3-b]pyridin-4-yl)quinoline-7-carbonyl)piperazine-1-carboxylate] |
| 1400 nM | CCCOC(=O)N1CCN(C(=O)c2ccc3c(Cl)cc(-c4ccccn4)nc3c2)CC1 [B008, Propyl 4-(4-chloro-2-(pyridin-2-yl)quinoline-7-carbonyl)piperazine-1-carboxylate] |
| 150 nM | CCCOC(=O)N1CCN(C(=O)c2ccc3c(Cl)c(C)c(-c4ccc(OC)cc4)nc3c2)C[C@H]1C [B036, Propyl (R)-4-(4-chloro-2-(4-methoxyphenyl)-3-methylquinoline-7-carbonyl)-2-methylpiperazine-1-carboxylate] |

Second part, the compound before the results:

| Structure (SMILES) | IC50 |
| --- | --- |
| CCCOC(=O)N1CCN(C(=O)c2ccc3c(Cl)c4c(nc3c2)CC(c2ncccc2C)CC4)C[C@@H]1C (stereo partly drawn) [A107, Propyl (2S)-4-(9-chloro-6-(3-methylpyridin-2-yl)-5,6,7,8-tetrahydroacridine-3-carbonyl)-2-methylpiperazine-1-carboxylate] | 380 nM |
| CCCOC(=O)N1CCN(C(=O)c2ccc3c(Cl)c4c(nc3c2)CC(c2cc(C)ccn2)CC4)C[C@H]1C (stereo partly drawn) [A133, Propyl (2R)-4-(9-chloro-6-(4-methylpyridin-2-yl)-5,6,7,8-tetrahydroacridine-3-carbonyl)-2-methylpiperazine-1-carboxylate] | 120 nM |
| CCCOC(=O)N1CCN(C(=O)c2ccc3c(Cl)c4c(nc3c2)CCCC4)C(C(N)=O)C1 (stereo not shown) [A059, Propyl 3-carbamoyl-4-(9-chloro-5,6,7,8-tetrahydroacridine-3-carbonyl)piperazine-1-carboxylate] | 2300 nM |
| CCCOC(=O)N1CCN(C(=O)c2ccc3c(Cl)c4c(nc3c2)CCCC4)CC1C(=O)NC (stereo not shown) [A048, Propyl 4-(9-chloro-5,6,7,8-tetrahydroacridine-3-carbonyl)-2-(methylcarbamoyl)piperazine-1-carboxylate] | 6100 nM |
| CCCOC(=O)N1CCN(C(=O)c2ccc3c(Cl)c4c(nc3c2)CCCC4)[C@@H](C)C1 [A010, Propyl (S)-4-(9-chloro-5,6,7,8-tetrahydroacridine-3-carbonyl)-3-methylpiperazine-1-carboxylate] | 190 nM |
| C#Cc1ccc(C2CCc3c(nc4cc(C(=O)N5CCN(C(=O)OCCC)[C@H](C)C5)ccc4c3Cl)C2)nc1 (stereo partly drawn) [A149, Propyl (2R)-4-(9-chloro-6-(5-ethynylpyridin-2-yl)-5,6,7,8-tetrahydroacridine-3-carbonyl)-2-methylpiperazine-1-carboxylate] | 260 nM |
| C=CCOC(=O)N1CCN(C(=O)c2ccc3c(Cl)c4c(nc3c2)CCCC4)CC1 [A002, Allyl 4-(9-chloro-5,6,7,8-tetrahydroacridine-3-carbonyl)piperazine-a1-carboxylate] | 1000 nM |
| CCCOC(=O)N1C2CCCC1CN(C(=O)c1ccc3c(Cl)c4c(nc3c1)CCCC4)C2 [A013, Propyl 3-(9-chloro-5,6,7,8-tetrahydroacridine-3-carbonyl)-3,9-diazabicyclo[3.3.1]nonane-9-carboxylate] | 190 nM |
| CCCOC(=O)N1CC2CCC(C1)N2C(=O)c1ccc2c(Cl)c3c(nc2c1)CCCC3 [A004, Propyl 8-(9-chloro-5,6,7,8-tetrahydroacridine-3-carbonyl)-3,8-diazabicyclo[3.2.1]octane-3-carboxylate] | 350 nM |
| CCCOC(=O)N1CCN(C(=O)c2ccc3c(Cl)c4c(nc3c2)CC(c2ccnc(CN)c2)CC4)CC1 (stereo not shown) [A144, Propyl 4-(6-(2-(aminomethyl)pyridin-4-yl)-9-chloro-5,6,7,8-tetrahydroacridine-3-carbonyl)piperazine-1-carboxylate] | 510 nM |
| CCCOC(=O)N1CCN(C(=O)c2ccc3c(Cl)c4c(nc3c2)CC(c2cnccn2)CC4)CC1 (stereo not shown) [A112, Propyl 4-(9-chloro-6-(pyrazin-2-yl)-5,6,7,8-tetrahydroacridine-3-carbonyl)piperazine-1-carboxylate] | 140 nM |
| CCCOC(=O)N1CC2CCCC(C1)N2C(=O)c1ccc2c(Cl)c3c(nc2c1)CCCC3 [A015, Propyl 9-(9-chloro-5,6,7,8-tetrahydroacridine-3-carbonyl)-3,9-diazabicyclo[3.3.1]nonane-3-carboxylate] | 320 nM |
